B1: IFN-γ: interferon-γ (10^3 U/ml) added to monocyte cultures to test synergy (protein, UniProt P01579 24-161, looked up)
Interferon gamma: QDPYVKEAENLKKYFNAGHSDVADNGTLFLGILKNWKEESDRKIMQSQIVSFYFKLFKNFKDDQSIQKSVETIKEDMNVKFFNSNKKKRDDFEKLTNYSVTDLNVQRKAIHELIQVMAELSPAAKTGKRKRSQMLFRG

How the values were obtained:
Assay type in all cases: cell-based, human
[1] = system: interleukin-1 (IL-1) production by monocytes; assay: Interleukin-1 (IL-1) test on monocyte culture supernatants (mouse thymocyte co-mitogenic bioassay); settings: thymidine incorporation by C3H/HeJ mouse thymocytes with PHA
Method: The mononuclear cells of the circulating blood of normal donors were separated by the classical technique described by Boyum using a Ficoll gradient. After being washed, the mononuclear cells were incubated at 37° C. for 1 hour in the proportion of 5×10^6 monocytes (NSE^+ cells) per ml of culture medium, 5 ml per culture bottle. The culture medium used in this experiment was composed of RPMI 1640 to which antibiotics and HEPES buffer had been added. After one hour, the non-adherent cells were removed by washing the bottles with medium previously brought to 37 C, and the adherent cells, composed essentially of monocytes (>90%), were cultured again in the presence of different amounts of test products in a PBS medium (Dulbecco) without Ca^2+ or Mg^2+. Culturing was continued for 24 or 48 hours and the cell supernatants were then withdrawn, centrifuged, aliquoted and stored either at -80° C. or at -20° C. The culture supernatants were replaced in the bottles by the same amount of pyrogen-free distilled water to Lyse the cells. […]
This test was first described by Gery et al in 1972 [Gery et al, 1972 Potentiation of the T Lymphocyte response to mitogens. […] The results were expressed as the difference between the pulses per minute incorporated by the cultures in the presence of supernatants and the pulses per minute incorporated by the control cultures.

monocytes = assay: Stimulation of monocytic cells with an immunostimulant; settings: for stimulation of monocytes: adherent blood monocytes of normal donors, cultured 24 or 48 hours with test product; for synergy with interferon-γ: in the presence of interferon-γ 10^3 U/ml, a dose at which IFN-γ alone was inactive
Method: The mononuclear cells of the circulating blood of normal donors were separated by the classical technique described by Boyum using a Ficoll gradient. After being washed, the mononuclear cells were incubated at 37° C. for 1 hour in the proportion of 5×10^6 monocytes (NSE^+ cells) per ml of culture medium, 5 ml per culture bottle. The culture medium used in this experiment was composed of RPMI 1640 to which antibiotics and HEPES buffer had been added. After one hour, the non-adherent cells were removed by washing the bottles with medium previously brought to 37 C, and the adherent cells, composed essentially of monocytes (>90%), were cultured again in the presence of different amounts of test products in a PBS medium (Dulbecco) without Ca^2+ or Mg^2+. Culturing was continued for 24 or 48 hours and the cell supernatants were then withdrawn, centrifuged, aliquoted and stored either at -80° C. or at -20° C. The culture supernatants were replaced in the bottles by the same amount of pyrogen-free distilled water to Lyse the cells. The Lysate was recovered, aliquoted and also stored at -20° C.

[2] = system: tumor necrosis factor (TNF) production by monocytes; assay: Tumor Necrosis Factor (TNF) test on monocyte culture supernatants (toxicity on L-929 target cells); settings: toxicity on L-929 cells with actinomycin D
Method: The mononuclear cells of the circulating blood of normal donors were separated by the classical technique described by Boyum using a Ficoll gradient. After being washed, the mononuclear cells were incubated at 37° C. for 1 hour in the proportion of 5×10^6 monocytes (NSE^+ cells) per ml of culture medium, 5 ml per culture bottle. The culture medium used in this experiment was composed of RPMI 1640 to which antibiotics and HEPES buffer had been added. After one hour, the non-adherent cells were removed by washing the bottles with medium previously brought to 37 C, and the adherent cells, composed essentially of monocytes (>90%), were cultured again in the presence of different amounts of test products in a PBS medium (Dulbecco) without Ca^2+ or Mg^2+. Culturing was continued for 24 or 48 hours and the cell supernatants were then withdrawn, centrifuged, aliquoted and stored either at -80° C. or at -20° C. The culture supernatants were replaced in the bottles by the same amount of pyrogen-free distilled water to Lyse the cells. The Lysate was recovered, aliquoted and also stored at -20° C. […]
The technique was sensitized by adding actinomycin D to the test. […] After 24 hours of culturing, the number of unlysed viable cells was measured by staining the plates with crystal violet and measuring the optical density of different wells on a multiscan reader.

Molecule | IL-1 production by monocytes [1] | stimulation of monocytes (monocytes) | synergy with interferon-γ (monocytes) | TNF production by monocytes [2] | activity of IFN-γ alone (monocytes; interferon-γ 10^3 U/ml alone)
C=C(CC(NC(=O)CC[C@@H](N)C(=O)O)C(=O)O)CC(NC(=O)[C@H](C)N)C(=O)O (stereo partly drawn) [Example 2, 2-(L-Alanylamino)-6-(γ-D-glutamylamino)-4-methyleneheptanedioic acid] | stimulated | stimulated monocytes | synergy | stimulated | –
C=C(CC(N)C(=O)O)CC(NC(=O)CC[C@@H](N)C(=O)O)C(=O)O (stereo partly drawn) [Example 1, 2-amino-6-(γ-D-glutamylamino)-4-methylene-heptanedioic acid] | stimulated | stimulated monocytes | synergy | stimulated | –
B1 | – | – | – | – | inactive

From US5089476A, “Glutamic acid derivatives” (Roussel Uclaf, priority 1987, dated 1992)
